Results on 14 compounds are retold here after patent publication US9926271B2, “Octahydrocyclopentapyrroles, their preparation and use” (The Trustees of Columbia University in the City of New York, priority 2013, dated 2018).

Broadly, the IC50 is the midpoint of a concentration-inhibition curve.

Data set [1] addresses T1, RBP4 (Homo sapiens, UniProt P02753). As to the kind of experiment: Scintillation proximity RBP4 binding assay (SPA). The arrangement: Untagged human RBP4 purified from urine of tubular proteinuria patients; purchased Fitzgerald Industries International; host or cells: urine of tubular proteinuria patients. Particulars: 10 nM 3H-Retinol, 50 nM biotinylated RBP4. On the procedure:
Scintillation Proximity RBP4 Binding Assay
Untagged human RBP4 purified from urine of tubular proteinuria patients was purchased from Fitzgerald Industries International. It was biotinylated using the EZ-Link Sulfo-NHS-LC-Biotinylation kit from Pierce following the manufacturer's recommendations. Binding experiments were performed in 96-well plates (OptiPlate, PerkinElmer) in a final assay volume of 100 μl per well in SPA buffer (1×PBS, pH 7.4, 1 mM EDTA, 0.1% BSA, 0.5% CHAPS). The reaction mix contained 10 nM ^3H-Retinol (48.7 Ci/mmol; PerkinElmer), 0.3 mg/well Streptavidin-PVT beads, 50 nM biotinylated RBP4 and a test compound. Nonspecific binding was determined in the presence of 20 μM of unlabeled retinol. The reaction mix was assembled in the dark under dim red light. The plates were sealed with clear tape (TopSeal-A: 96-well microplate, PerkinElmer), wrapped in the aluminum foil, and allowed to equilibrate 6 hours at room temperature followed by overnight incubation at +4° C. Radiocounts were measured using a TopCount NXT counter (Packard Instrument Company).

In data set [2] the target is T2, RBP4-TTR interaction (Homo sapiens, UniProt P02753). As to the kind of experiment: TR-FRET (HTRF) assay for retinol-induced RBP4-TTR interaction. Type of data set: biochemical. The arrangement: human RBP4 fragment (amino acids 19-201); host or cells: Gold(DE3)pLysS E. coli strain (Stratagene), pMAL-c4x vector. Particulars: in the presence of 1 μM retinol; read-out: HTRF assay for antagonists of RBP4-TTR interaction: IC50. From the text:
TR-FRET Assay for Retinol-Induced RBP4-TTR Interaction
Binding of a desired RBP4 antagonist displaces retinol and induces hindrance for RBP4-TTR interaction resulting in the decreased FRET signal (FIG. 7). Bacterially expressed MBP-RBP4 and untagged TTR were used in this assay. […] Following cell lysis, recombinant RBP4 was purified from the soluble fraction using the ACTA FPLC system (GE Healthcare) equipped with the 5-ml the MBP Trap HP column. Human untagged TTR was purchased from Calbiochem. Untagged TTR was labeled directly with Eu^3+ Cryptate-NHS using the HTRF Cryptate Labeling kit from CisBio following the manufacturer's recommendations. HTRF assay was performed in white low volume 384 well plates (Greiner-Bio) in a final assay volume of 16 μl per well. The reaction buffer contained 10 mM Tris-HCl pH 7.5, 1 mM DTT, 0.05% NP-40, 0.05% Prionex, 6% glycerol, and 400 mM RE. […] Titration of test compounds in this assay was conducted in the presence of 1 μM retinol. All reactions were assembled in the dark under dim red light and incubated overnight at +4° C. wrapped in aluminum foil. TR-FRET signal was measured in the SpectraMax M5e Multimode Plate Reader (Molecular Device). Fluorescence was excited at 337 nm and two readings per well were taken: Reading 1 for time-gated energy transfer from Eu(K) to d2 (337 nm excitation, 668 nm emission, counting delay 75 microseconds, counting window 100 microseconds) and Reading 2 for Eu(K) time-gated fluorescence (337 nm excitation, 620 nm emission, counting delay 400 microseconds, counting window 400 microseconds). The TR-FRET signal was expressed as the ratio of fluorescence intensity: Flu665/Flu620×10,000.

The target in data set [3] is T1, RBP4. Conditions: cited from earlier work.
The subject of data set [4] is Abca4−/− mice. Particulars: animal model of excessive bisretinoid accumulation; cited from earlier work.
The subject of data set [5] is mice. Conditions: cited from earlier work.
In data set [6] the target is T2, RBP4-TTR interaction. Particulars: cited from earlier work.
The subject of data set [7] is serum RBP4 and retinol. Particulars: in vivo; cited from earlier work.
The test system of data set [8] is retinal pigment epithelium cells. Conditions: many cell types, including the retinal pigment epithelium cells; cited from earlier work.

`COc1cc(C(=O)O)nc(N2C[C@H]3C[C@@H](c4ccccc4C(F)(F)F)C[C@H]3C2)n1` [Compound 62, 6-Methoxy-2-((3aR,5r,6aS)-5-(2-(trifluoromethyl)phenyl)hexahydrocyclopenta[c]pyrrol-2(1H)-yl)pyrimidine-4-carboxylic Acid]: the IC50 in data set [1] is 14.3 nM; in data set [2], 86.7 nM.

For `CC(C)c1cc(C(=O)O)nc(N2C[C@H]3C[C@@H](c4ccccc4C(F)(F)F)C[C@H]3C2)n1` [Compound 63, 6-Isopropyl-2-((3aR,5r,6aS)-5-(2-(trifluoromethyl)phenyl)hexahydrocyclopenta[c]pyrrol-2(1H)-yl)pyrimidine-4-carboxylic Acid], the IC50 in data set [1] was 158 nM; in data set [2], 203 nM.

For the compound `O=C(O)c1ccnc(N2C[C@H]3C[C@@H](c4ccccc4C(F)(F)F)C[C@H]3C2)n1` [Compound 64, 2-((3aR,5r,6aS)-5-(2-(Trifluoromethyl)phenyl)hexahydrocyclopenta[c]pyrrol-2(1H)-yl)pyrimidine-4-carboxylic Acid], the IC50 is 27.2 nM in data set [1] and 79.6 nM in data set [2].

Consider `O=C(O)c1cc(C(F)(F)F)nc(N2C[C@H]3C[C@@H](c4ccccc4C(F)(F)F)C[C@H]3C2)n1` [Compound 65, 6-(Trifluoromethyl)-2-((3aR,5r,6aS)-5-(2-(trifluoromethyl)phenyl)hexahydrocyclopenta[c]pyrrol-2(1H)-yl)pyrimidine-4-carboxylic Acid], for which the IC50 in data set [1] came to 9.5 nM; in data set [2], 88 nM.

Take `Cc1cnc(N2C[C@H]3C[C@@H](c4ccccc4C(F)(F)F)C[C@H]3C2)nc1C(=O)O` [Compound 66]: the figures for the IC50 in data set [1] and in data set [2] were 90 nM and 596 nM, respectively.

Take `O=C(O)c1nc(N2C[C@H]3C[C@@H](c4ccccc4C(F)(F)F)C[C@H]3C2)ncc1F` [Compound 67]: the IC50 in data set [1] was 25.9 nM; in data set [2] it was 276 nM.

As for `O=C(O)c1cnc(N2C[C@H]3C[C@@H](c4ccccc4C(F)(F)F)C[C@H]3C2)nc1` [Compound 68], the IC50 in data set [1] came out at 172 nM; in data set [2], 1860 nM.

Turning to `Cc1cc(C(=O)O)nc(N2C[C@H]3C[C@@H](c4ccccc4C(F)(F)F)C[C@H]3C2)c1` [Compound 69, 4-Methyl-6-((3aR,5r,6aS)-5-(2-(trifluoromethyl)phenyl)hexahydrocyclopenta[c]pyrrol-2(1H)-yl)picolinic Acid], the IC50 came out at 14 nM in data set [1] and 295 nM in data set [2].

`Cc1cc(C(=O)O)cc(N2C[C@H]3C[C@@H](c4ccccc4C(F)(F)F)C[C@H]3C2)n1` [Compound 70, 2-Methyl-6-((3aR,5r,6aS)-5-(2-(trifluoromethyl)phenyl)hexahydrocyclopenta[c]pyrrol-2(1H)-yl)isonicotinic Acid]: the IC50 in data set [1] came to 53.2 nM; in data set [2], 229 nM.

For the compound `O=C(O)c1cccnc1N1C[C@H]2C[C@@H](c3ccccc3C(F)(F)F)C[C@H]2C1` [Compound 71, 2-((3aR,5r,6aS)-5-(2-(Trifluoromethyl)phenyl)hexahydrocyclopenta[c]pyrrol-2(1H)-yl)nicotinic Acid], the IC50 came to 43.8 nM in data set [1] and 382 nM in data set [2].

In the case of `Cc1cc(C(=O)O)nc(N2C[C@H]3C[C@@H](c4cc(F)ccc4C(F)(F)F)C[C@H]3C2)n1` [Compound 72, 2-((3aR,5r,6aS)-5-(5-Fluoro-2-(trifluoromethyl)phenyl)hexahydrocyclopenta[c]pyrrol-2(1H)-yl)-6-methylpyrimidine-4-carboxylic Acid], the results for the IC50 in data set [1] and in data set [2] were 54.3 nM and 49.2 nM, respectively.

With `Cc1cc(NC(=O)N2C[C@H]3C[C@@H](c4ccccc4C(F)(F)F)C[C@H]3C2)c(C(=O)O)cn1` [Compound 73, 6-Methyl-4-((3aR,5r,6aS)-5-(2-(trifluoromethyl)phenyl)octahydrocyclopenta[c]pyrrole-2-carboxamido)nicotinic Acid], in data set [1], the IC50 was 23.9 nM.

In the case of `Cc1nc(N2C[C@H]3C[C@@H](c4ccccc4C(F)(F)F)C[C@H]3C2)nc(C(=O)O)c1C` [Compound 74, 5,6-Dimethyl-2-((3aR,5r,6aS)-5-(2-(trifluoromethyl)phenyl)hexahydrocyclopenta[c]pyrrol-2(1H)-yl)pyrimidine-4-carboxylic Acid], the IC50 in data set [1] was found to be 48.7 nM; in data set [2] it was 123 nM.

In the case of `CC1=C(/C=C/C(C)=C/C=C/C(C)=C/C(=O)Nc2ccc(O)cc2)C(C)(C)CCC1` [fenretinide, N-(4-hydroxy-phenyl)retinamide], the “binding to RBP4, displacement of all-trans retinol” value in data set [3] is “bind to RBP4”. Further, the A2E production result in data set [4] is “reduced A2E production”. The formation of hemangiosarcomas result in data set [5] is “stimulate formation of hemangiosarcomas”. In data set [6], the RBP4-TTR interaction entry is reported as “disrupt the RBP4-TTR interaction”. In addition, the “serum RBP4 and retinol” value in data set [7] is “reduce serum RBP4 and retinol”. For the same compound, in data set [8], the induction of apoptosis entry is “extremely active inducer of apoptosis”.
